Measurements: paper PMC12090809 (Journal of Virology, 2025)
“Also recorded” adds a separate entry of the source.

Columns and labels:
[1] = system: Env expressed on CH058TF-infected cells; experiment: Binding of anti-CoRBS mAb 17b to CH058TF-infected cells after incubation with plasma from BNM-III-170-treated uninfected RMs (FACS); type: cell-based, HIV-1
Method: Next, we assessed the ability of the plasma collected from uninfected RMs at various timepoints following BNM-III-170 administration to induce conformational changes in Env expressed on the surface of HIV-1-infected cells. Briefly, plasma was incubated with cells infected with the transmitted/founder virus CH058 (CH058TF) and the binding of the Alexa-Fluor-647-conjugated anti-CoRBS mAb 17b (whose epitope is not exposed on the “closed” Env conformation) to Env expressed on infected cells was measured by FACS (Fig. 1B).
To evaluate the functional activity of bioavailable BNM-III-170 in plasma, the plasma from uninfected RMs treated with BNM-III-170 was used to modulate Env conformation at the surface of infected cells. Briefly, 2 days post-infection, CEM.NKr cells infected with CH058TF were incubated with plasma from RMs (1:10 dilution), the Alexa-Fluor 647-conjugated 17b (5 µg/mL), and the AquaVivid viability dye at 37°C for 45 min. As a positive control, infected cells were incubated with 50 µM of BNM-III-170. Infected cells were then identified based on HIV-1 p24 detection as described above.

[2] = system: SHIV AD8-EO-infected rhesus macaques; experiment: Safety of subcutaneous BNM-III-170 dosing regimens in SHIV AD8-EO-infected RMs; type: in vivo, Macaca mulatta; conditions: for Blood chemistries / Clinical signs: SHIV AD8-EO-infected RMs, one line per animal; for ALP: normal range 83–363 U/L
[3] = system: CH058TF-infected CEM.NKr cells; type: cell-based, HIV-1; conditions: 50 μM added BNM-III-170 vs absence
Method: Cell surface staining was performed at 48 h post-infection. Mock-infected or HIV-1-infected CEM.NKr or primary CD4+ T cells were incubated for 45 min at 37°C with anti-Env mAbs (5 µg/mL), plasma from PWH (1:1,000 dilution), or plasma from infected RMs (1:500). When indicated, antibody/plasma incubation was done in the presence of 50 µM of BNM-III-170, or equivalent amounts of DMSO. To evaluate the capacity of plasma from SHIV-AD8-EO-infected RMs treated with BNM-III-170 to recognize HIV-1-infected cells, a 1:10 plasma dilution was used. Cells were then washed twice with PBS and stained with the appropriate Alexa Fluor 647-conjugated secondary antibody (2 µg/mL) for 20 min and the viability dye AquaVivid (Thermo Fisher Scientific) at room temperature. Cells were then washed twice with PBS and fixed in a 2% PBS-formaldehyde solution. […]
Measurement of ADCC using the FACS-based assay was performed at 48 h post-infection, as previously described. […] The percentage of ADCC was calculated with the following formula: (% of p24+/p27+ cells in Targets plus Effectors) − (% of p24+/p27+ cells in Targets plus Effectors plus Abs) / (% of p24+/p27+ cells in Targets) by gating on infected live target cells.

[4] = in vivo, 12 mg/kg
Method: BNM-III-170 levels in plasma from rhesus macaque were determined by high-performance liquid chromatography-tandem mass spectrometry (HPLC-MS/MS). Briefly, BNM-III-170 was extracted from plasma using protein precipitation. A Thermo Scientific TSQ Quantiva triple quadrupole mass spectrometer was interfaced with the Thermo Scientific Ultimate 3000XRS UHPLC system using a heated electrospray ion source (HESI). MS detection was performed in positive ion mode, using multiple reaction monitoring (MRM). The precursor-ion reactions for BNM-III-170 and IS were set to 447.3 → [226.1 + 357.1] and 262.0 → 139.1, respectively. Chromatographic separation was achieved on a Thermo Scientific Accucore RP-MS analytical column (100 × 2.1 mm I.D., 2.6 mm) maintained at 40°C using isocratic elution, which consisted of acetonitrile and 10 mM ammonium formate in water (pH 3.0) at a ratio of 20:80, respectively. The flow rate was fixed at 300 µL/min. Acquisition and analysis of data were conducted using the Xcalibur 4.0 software. Each calibration curve was comprised of a double blank (matrix without analyte or internal standard), zero standard, and eight calibration points. Calibration curves were computed from the equation y = ax + b, based on the weight of the calibration lines created from the peak-area ratios of the drug relative to the internal standard.

SHIV AD8-EO = experiment: Viral infectivity / neutralization assay in TZM-bl cells with SHIV variants; conditions: virus incubated with BNM-III-170 (Fig. 2A)
Method: The viral neutralization assay was done as previously described ([56]). Briefly, TZM-bl target cells were seeded at a density of 1 × 10^4 cells/well in 96-well luminometer-compatible tissue culture plates (Perkin-Elmer Life Sciences, Waltham, MA) 24 h before infection. Then, 100 µL portions of recombinant viruses was incubated with the indicated amount of mAbs, plasma, BNM-III-170, or a mixture of mAbs and BNM-III-170 for 1 h at 37°C and then added to the target cells. After incubation for 48 h at 37°C, the medium was removed from each well, and the cells were lysed by the addition of 30 µL of passive lysis buffer (Promega) and three freeze-thaw cycles. An LB 941 TriStar luminometer (Berthold Technologies) was used to measure the luciferase activity in each well after the addition of 100 µL of luciferin buffer (15 mM MgSO4, 15 mM KPO4 [pH 7.8], 1 mM ATP, and 1 mM dithiothreitol) and 50 µL of 1 mM D-luciferin potassium salt (Prolume).

[5] = 36 mg/kg SQ, 2 doses, dosing interval 1 day, 36 mg/kg
[6] = 36 mg/kg SQ, 3 doses, dosing interval 3 days, 36 mg/kg
[7] = animal 14C013 at necropsy, 2 × 36 mg/kg SQ every 24 h

SMILES: CNCc1ccc2c(c1)C[C@H](CN=C(N)N)[C@H]2NC(=O)C(=O)Nc1ccc(Cl)c(F)c1.O=C(O)C(F)(F)F.O=C(O)C(F)(F)F [BNM-III-170]
- association between 17b binding and BNM-III-170 plasma concentrations ([1]; each dose and all combined doses, Spearman correlation): positive correlation
- effect on 17b binding to CH058TF-infected cells ([1]; plasma from uninfected RMs, all tested doses (3–36 mg/kg SQ)): consistently shown to increase 17b binding
- duration of residual 17b activity ([1]; plasma from uninfected RMs, highest tested dose (36 mg/kg SQ)): up to 8 h
- Blood chemistries ([2]; 24 mg/kg SQ, 1 dose, 24 mg/kg): Transient elevation of CPK, troponin I
- Blood chemistries [2, 5]: Elevated AST, ALT, amylase, CPK, troponin I; also recorded: Transient elevation of ALP, CPK, troponin I
- Clinical signs [2, 5]: pale mucus membranes, weak femoral pulses, and dyspnea; also recorded: Animal experienced acute respiratory distress and tachycardia at 6 hr post dose #2 and was sacrificed; inconclusive path report, pale liver noted; also recorded: Enlarged liver and spleen, lesion at BNM-III-170 injection site
- Blood chemistries [2, 6]: Transient elevation of AST, ALT, CPK; also recorded: Elevated BUN, BUN/Cr, CPK; low potassium
- Clinical signs [2, 6]: mild erythema at the BNM-III-170 injection sites; also recorded: Animal reached endpoint criteria (weight loss > 25%) due to chronic diarrhea that started prior to CD4mc treatments, animal sacrificed 3 hr post dose #2
- Blood chemistries ([2]; 36 mg/kg SQ, 3 doses, dosing interval 7 days, 36 mg/kg): Transient elevation of AST, ALP, TRIG, CPK; also recorded: Transient elevation of AST, ALT, ALP, CSK; also recorded: Transient elevation of Glob, ALT, ALP, GGT, AMY, CPK
- adverse reactions ([2]; SHIV-infected RMs 14C056 and 34901, 1 × 24 mg/kg SQ): No adverse reactions were observed
- clinical signs of toxicity ([2]; SHIV-infected RMs, 36 mg/kg SQ doses at 7-day dosing interval): no clinical signs of toxicity were noted
- ALT [2, 7]: 123 U/L
- AST [2, 7]: 145 U/L
- troponin I [2, 7]: 0.28 ng/mL
- amylase ([2]; animal 14C013 at necropsy, 2 × 36 mg/kg SQ every 24 h, normal range 148–316 U/L): 421 U/L
- AST ([2]; animal 14C056, 24 h after dose 3, 36 mg/kg SQ every 3 days): 109 U/L
- troponin I ([2]; animal 34901, 6 h post-dose, 1 × 24 mg/kg SQ, resolved by 5 days post-treatment): 0.090 ng/mL
- potassium ([2]; animal 34901 at necropsy (3 h after dose 2, 36 mg/kg SQ every 3 days), 2.4 vs 2.8 at 0 h of cycle, normal range 3–5 mmol/L): 2.4 mmol/L
- blood urea nitrogen ([2]; animal 34901 at necropsy (3 h after dose 2, 36 mg/kg SQ every 3 days), 34 at 0 h of cycle, normal range 9–27, likely due to prolonged diarrhea): 28 mg/dL
- ratio of blood urea nitrogen to creatinine ([2]; animal 34901 at necropsy (3 h after dose 2, 36 mg/kg SQ every 3 days), 37.8 at 0 h of cycle, normal range 12.5–33.3): 35
- troponin I ([2]; animal RYj17, 6 h after dose 1 of 2 × 36 mg/kg SQ every 24 h, resolved by 24 h): 0.049 ng/mL
- ALP ([2]; animal RYj17, 24 h after dose 2 of 2 × 36 mg/kg SQ every 24 h): 405 U/L
- ALP ([2]; animal RYj17, 16 days later (after 24 h post dose 2), 2 × 36 mg/kg SQ every 24 h): 715 U/L
- ADCC activity of Abs in 0 h RM plasma against infected cells [3]: significantly increased
- binding of Abs in 0 h RM plasma to infected cells [3]: significantly increased
- Cmax [4]: 15300 ng/mL
- effect on SHIV AD8-EO infectivity (SHIV AD8-EO): directly decrease SHIV AD8-EO infectivity
